Structures are written as SMILES. Counter-ions that a name gives are not always drawn. Marks after values point to notes of the source that are not given here.

Data on eight molecules can be found in US10875829B1, “Azetidine derivatives useful as modulators of cortical catecholaminergic neurotransmission” (Integrative Research Laboratories Sweden AB, priority 2016, dated 2020).

Assay [1] addresses Human Norepinephrine Transporter (NET (h)) (Homo sapiens (Human), UniProt P23975). Kind of assay: Radioligand binding assay, human norepinephrine transporter ([3H]nisoxetine). The conditions noted are these: for inhibition at 10 µM: 2 h, single concentration 1.0 E-5 M, duplicate, mean values; for IC50: dose-response curves. The protocol: (The measurement was performed as described in Pacholczyk, T., Blakely, R. D. and Amara, S. G. (1991), Expression cloning of a cocaine- and antidepressant-sensitive human noradrenaline transporter, Nature, 350: 350)
Cell membrane homogenates (20 μg protein) are incubated for 120 min at 4° C. with 1 nM [3H]nisoxetine in the absence or presence of the test compound in a buffer containing 50 mM Tris-HCl (pH 7.4), 120 mM NaCl and 5 mM KCl. Nonspecific binding is determined in the presence of 1 μM desipramine. Following incubation, the samples are filtered rapidly under vacuum through glass fiber filters (GF/B, Packard) presoaked with 0.3% PEI and rinsed several times with ice-cold 50 mM Tris-HCl using a 96-sample cell harvester (Unifilter, Packard). The filters are dried then counted for radioactivity in a scintillation counter (Topcount, Packard) using a scintillation cocktail (Microscint 0, Packard).
The results are expressed as a percent inhibition of the control radioligand specific binding.
[…] Reported values are mean values.

The test system of assay [2] is non-pre-treated Sprague-Dawley rats. Kind of assay: Locomotor activity in drug-naïve rats (behavioural activity, distance traveled 0-60 min). It is filed as in vivo. To be noted: for locomotor activity: recorded for 60 minutes, control saline, n=5. The protocol: The effect of compounds in the present disclosure on locomotor activity in drug-naïve rats was also investigated. The animals were placed in the motility meters immediately after drug administration and locomotor activity was recorded for 60 minutes (counts/60 min±SEM). The results are presented as percent of control.
Behavioural activity was measured using eight Digiscan activity monitors (RXYZM (16) TAO, Omnitech Electronics, Columbus, Ohio, USA), connected to an Omnitech Digiscan analyzer and an Apple Macintosh computer equipped with a digital interface board (NB D10-24, National Instruments, USA). Each activity monitor consisted of a quadratic metal frame (W×L=40 cm×40 cm) equipped with photo beam sensors. During measurements of behavioural activity, a rat was put in a transparent acrylic cage (W×L×H, 40×40×30 cm) which in turn was placed in the activity monitor. Each activity monitor was equipped with three rows of infrared photo beam sensors, each row consisting of 16 sensors. Two rows were placed along the front and the side of the floor of the cage, at a 90° angle, and the third row was placed 10 cm above the floor to measure vertical activity. Photo beam sensors were spaced 2.5 cm apart. Each activity monitor was fitted in an identical sound and light attenuating box containing a weak house light and a fan.
The computer software was written using object oriented programming (LabVIEW™, National instruments, Austin, Tex., USA).
Behavioural data from each activity monitor, representing the position (horizontal center of gravity and vertical activity) of the animal at each time, were recorded at a sampling frequency of 25 Hz and collected using a custom written LABView™ application. The data from each recording session were stored and analyzed with respect to distance traveled. Each behavioural recording session lasted 60 min, starting approximately 5 min after the injection of test compound.
Compounds disclosed herein have been tested for effects on spontaneous locomotor activity in non-pre-treated Sprague-Dawley rats (based on accumulated distance traveled 0-60 min post dosing), and with doses up to 100 μmol/kg (s.c.).
The animals were placed in the motility meters immediately after drug administration and locomotor activity was recorded for 60 minutes (counts/60 min). Results are presented as percent of control means. Statistical significance was assessed using Student's t-test (2 tailed) vs controls. * denotes p<0.05, ** p<0.01, *** p<0.001, n=5.

In a further assay the test system is DOPAC. In words: In vivo neurochemistry: tissue levels of DOPAC in brain regions. Further details: species or system rats. To be noted: 100 μmol/kg s.c., 65 min before sacrifice, control saline, n=5. The source says: The change in turnover of dopamine in the terminal areas of the ascending dopaminergic projections of the mammalian brain can be illustrated by measuring of changes in biochemical indices in the brain e.g. changes in concentrations of dopamine metabolites such as 3,4-dihydroxyphenyl-acetic acid (DOPAC) in the striatum and frontal cortex.
The measurement of the tissue content of DOPAC is well established in the field of research since the 1960's. In short, male Sprague-Dawley rats are administered the test compound 60 minutes prior to decapitation. The brain is rapidly taken out and dissected. The striatum is rapidly frozen and subsequently quantitatively analyzed with respect to its content of DOPAC by means of HPLC and electrochemical detection. The number of animals used for each test compound/vehicle is 5/group.
After the behavioural activity sessions, the rats were decapitated and their brains rapidly taken out and put on an ice-cold petri-dish. The brains were dissected into a right and a left part of which the right part was analyzed for neurochemicals with HPLC and the left part was analyzed for gene expression. The limbic forebrain, the striatum, the frontal cortex, the hippocampus and the remaining hemispheral parts of each rat were dissected and frozen. Each brain part was subsequently analyzed with respect to its content of monoamines and their metabolites.
The monoamine transmitter substances (NA (noradrenaline), DA (dopamine), 5-HT (serotonin)) as well as one corresponding acid, (DOPAC (3,4-dihydroxyphenylacetic acid), were quantified in brain tissue homogenates by HPLC separations and electrochemical detection.
The analytical method is based on two chromatographic separations dedicated for amines or acids. Two chromatographic systems share a common auto injector with a 10-port valve and two sample loops for simultaneous injection on the two systems. Both systems are equipped with a reverse phase column (Luna C18 (2), dp 3 μm, 50*2 mm i.d., Phenomenex) and electrochemical detection is accomplished at two potentials on glassy carbon electrodes (MF-1000, Bioanalytical Systems, Inc.). The column effluent is passed via a T-connection to the detection cell or to a waste outlet. This is accomplished by two solenoid valves, which block either the waste or detector outlet. By preventing the chromatographic front from reaching the detector, better detection conditions are achieved. The aqueous mobile phase (0.4 ml/min) for the acid system contains citric acid 14 mM, sodium citrate 10 mM, Methanol 15% (v/v) and EDTA 0.1 mM. Detection potentials relative to Ag/AgCl reference are 0.45 and 0.60V. […] Detection potentials relative to Ag/AgCl reference are 0.45 and 0.65V.
Each compound or saline solution (control) indicated in the above table was administered subcutaneously (s.c.) 65 min before sacrificing the animals. DOPAC results are presented as percent of control means±SEM (standard error of the mean). Statistical significance was assessed using Student's t-test (2 tailed) vs controls. * denotes p<0.05, ** p<0.01, *** p<0.001, n=5.

Where [3] appears, read: at the highest tested dose (100 μmol/kg s.c.).

Chain of Human Norepinephrine Transporter (NET (h)) (P23975 whole entry): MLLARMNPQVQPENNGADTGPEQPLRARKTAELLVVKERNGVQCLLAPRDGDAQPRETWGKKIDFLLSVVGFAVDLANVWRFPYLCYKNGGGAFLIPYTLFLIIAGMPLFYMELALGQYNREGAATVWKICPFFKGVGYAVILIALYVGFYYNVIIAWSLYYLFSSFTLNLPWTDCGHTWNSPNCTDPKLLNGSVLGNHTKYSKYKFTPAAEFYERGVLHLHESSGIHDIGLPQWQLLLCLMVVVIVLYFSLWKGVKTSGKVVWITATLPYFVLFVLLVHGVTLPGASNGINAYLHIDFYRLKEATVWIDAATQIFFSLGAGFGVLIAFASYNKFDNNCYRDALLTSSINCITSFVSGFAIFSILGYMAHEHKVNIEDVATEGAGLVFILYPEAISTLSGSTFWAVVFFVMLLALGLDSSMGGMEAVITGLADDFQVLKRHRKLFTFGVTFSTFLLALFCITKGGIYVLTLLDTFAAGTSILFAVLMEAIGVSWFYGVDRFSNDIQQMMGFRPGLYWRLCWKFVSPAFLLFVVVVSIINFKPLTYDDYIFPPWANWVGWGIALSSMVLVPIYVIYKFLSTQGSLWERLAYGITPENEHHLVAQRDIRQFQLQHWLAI

The inhibition is the percentage by which the read-out fell short of the control. A high value points to a strong effect. One may read the IC50 as the concentration at which inhibition is half-maximal. Read a high IC50 as a need for much substance. `Fc1cccc(OC2CNC2)c1F` [Example 1A, 3-(2,3-difluorophenoxy)azetidine hydrochloric acid salt] came in with an inhibition at 10 µM in assay [1] of 37%. In assay [1], the IC50 is 79 µM. Moreover, the locomotor activity is on record as 135 ± 17 % of control means in assay [2] (11 μmol/kg s.c.), 163 ± 17* % of control means in assay [2] (33 μmol/kg s.c.) and 121 ± 23 % of control means in assay [2] (100 μmol/kg s.c.). Moreover, the “DOPAC cortex ± SEM” value in the assay on DOPAC is 300 ± 26*** % of control means. Moreover, in the assay with DOPAC, the “DOPAC striatum ± SEM” value is given as 53 ± 2*** % of control means.
Regarding `Fc1cc(F)c(F)c(OC2CNC2)c1` [Example 2, 3-(2,3,5-trifluorophenoxy)azetidine hydrochloric acid salt], in assay [1], the inhibition at 10 µM came to 25%. The values for the locomotor activity in assay [2] (11 μmol/kg s.c.), in assay [2] (33 μmol/kg s.c.) and in assay [2] (100 μmol/kg s.c.) were 66 ± 8** % of control means, 57 ± 5*** % of control means and 21 ± 5*** % of control means, respectively. Further, the “effect on locomotor activity (in words)” value in assay [2] (at all tested doses (11, 33, 100 μmol/kg s.c.)) is given as “significant reduction”. Also, in the assay with DOPAC, the “DOPAC cortex ± SEM” value is 121 ± 5.6 % of control means. The “DOPAC striatum ± SEM” value in the assay on DOPAC was 96 ± 4 % of control means.
`Fc1cc(F)c(F)c(OC2CNC2)c1F` [Example 3, 3-(2,3,5,6-tetrafluorophenoxy)-azetidine hydrochloric acid salt] returned an inhibition at 10 µM in assay [1] of 25%. In addition, the locomotor activity in assay [2] (11 μmol/kg s.c.) is given as 114 ± 18 % of control means; in assay [2] (33 μmol/kg s.c.), 71 ± 26 % of control means; in assay [2] (100 μmol/kg s.c.), 44 ± 8* % of control means. The “effect on locomotor activity (in words)” value in assay [2] (at the two highest doses (33, 100 μmol/kg s.c.)) is reported as “significant reduction”. For the same molecule, the “DOPAC cortex ± SEM” value in the assay with DOPAC is on record as 201 ± 11*** % of control means. In addition, in the assay with DOPAC, the “DOPAC striatum ± SEM” value is listed as 158 ± 3.4*** % of control means.
With `Fc1ccc(F)c(OC2CNC2)c1F` [Example 20, 3-(2,3,6-trifluorophenoxy)azetidine hydrochloric acid salt], the inhibition at 10 µM in assay [1] was found to be 10%.
As to `CCN1CC(Oc2c(F)c(F)cc(F)c2F)C1` [Example 39, 1-ethyl-3-(2,3,5,6-tetrafluorophenoxy)azetidine hydrochloric acid salt], in assay [1], the inhibition at 10 µM is 11%. In addition, the locomotor activity in assay [2] (11 μmol/kg s.c.) is 132 ± 14 % of control means; in assay [2] (33 μmol/kg s.c.), 103 ± 18 % of control means; in assay [2] (100 μmol/kg s.c.), 78 ± 19 % of control means. Also, the “effect on locomotor activity (in words)” value in assay [2] (setting [3]) was “significant reduction”. Besides, the “DOPAC cortex ± SEM” value with DOPAC was 191 ± 18** % of control means. Besides, the “DOPAC striatum ± SEM” value in the assay with DOPAC is 247 ± 13*** % of control means.
In the case of `Fc1cc(F)cc(OC2CNC2)c1.O=C(O)C(O)C(O)C(=O)O` [Example 52B, 3-(3,5-difluorophenoxy)azetidine (+)-tartaric acid salt], the locomotor activity is given as 93 ± 15 % of control means in assay [2] (11 μmol/kg s.c.), 30 ± 5* % of control means in assay [2] (33 μmol/kg s.c.) and 46 ± 8 % of control means in assay [2] (100 μmol/kg s.c.). The “DOPAC cortex ± SEM” value in the assay with DOPAC is 229 ± 4.6*** % of control means. In addition, the “DOPAC striatum ± SEM” value in the assay with DOPAC was 72 ± 1.7*** % of control means.
On to `Fc1cc(F)cc(OC2CNC2)c1` [Example 52C, 3-(3,5-difluorophenoxy)azetidine hydrochloric acid salt], for which the inhibition at 10 µM in assay [1] amounted to 25%. The locomotor activity in assay [2] (11 μmol/kg s.c.) was 128 ± 25 % of control means; in assay [2] (33 μmol/kg s.c.), 74 ± 24 % of control means; in assay [2] (100 μmol/kg s.c.), 73 ± 15 % of control means.
In assay [1], `Clc1ccc(OC2CNC2)cc1Cl` [Reference Compound, 3-(3,4-dichlorophenoxy)azetidine hydrochloric acid salt, reference compound] came in with an inhibition at 10 µM of 84% and an IC50 of 2.2 µM. Also, in assay [1] (ratio of IC50 values of Table 6), the “fold more potent than Example 1A at NET” value stood at 36 fold. Also, the locomotor activity in assay [2] (11 μmol/kg s.c.) is given as 132 ± 10 % of control means. Further, the locomotor activity in assay [2] (33 μmol/kg s.c.) was 108 ± 23 % of control means. Further, the locomotor activity in assay [2] (100 μmol/kg s.c.) is recorded as 323 ± 50** % of control means. The “effect on locomotor activity (in words)” value in assay [2] (setting [3]) is given as “significant increase”. In the assay on DOPAC, the “DOPAC cortex ± SEM” value is 86 ± 5.6 % of control means and the “DOPAC striatum ± SEM” value is 89 ± 2.5 % of control means.
